Measured values as given in PMC5450539, “Anti-Inflammatory Activity and Structure-Activity Relationships of Brominated Indoles from a Marine Mollusc” (Marine Drugs, 2017).
Counter-ions that a name gives are not always drawn. Like-named read-outs stand apart in the source and are kept apart here.

Experiments:
[1] = tested on: NO production; design: method as in Matheus et al. [37]; details: ref Matheus et al. [37]; cited from earlier work
[2] = tested on: PGE2; design: method as in Matheus et al. [37]; details: ref Matheus et al. [37]; cited from earlier work
[3] = tested on: nitric oxide (NO) production; assay: NO inhibition assay (Greiss) in LPS-stimulated RAW264.7 macrophages; assay type: cell-based, mouse; details: for IC50: read-out: NO IC50; for NO inhibitory activity (in words): LPS-stimulated RAW264.7, up to 50 µg/mL; for lowest concentration with significant inhibition of NO production: significant vs DMSO control; for reduction of NO production: 50 µg/mL (maximum test concentration), relative to DMSO control
Protocol: RAW264.7 macrophages were incubated 1 h with extracts/compounds prior to the addition of LPS. […] Then, 20 h after the addition of LPS, the supernatant was collected. […] The plates were incubated for 15–20 min in the dark, then read at 550 nm wavelength on an Anthos Zenyth 200rt (Anthos Labtec Instruments). Sodium nitrite was used to prepare a standard curve to quantify the nitrite from the absorbance readings in this assay. All data were processed in Microsoft Office Excel 2013 (MS) first to obtain descriptive statistics. One-way Analysis of Variance (ANOVA) followed by Dunnett’s multiple comparisons test was performed using GraphPad Prism version 6.00 for Windows (GraphPad Software, La Jolla, CA, USA, www.graphpad.com), with p < 0.05 considered significant.

[4] = tested on: 3T3 ccl-92 mouse fibroblast; assay: Crystal violet cytotoxicity assay, 3T3 ccl-92; assay type: cell-based; details: 24 h incubation; max test concentration 50 µg/mL; > = <50% reduction in viability at max
Protocol: (§1) All extract/compounds were dissolved in DMSO and tested at 5 different concentrations of 50, 10, 2, 0.4, and 0.08 μg/mL for all anti-inflammatory assays unless otherwise noted. The final concentration of DMSO was 0.35% v/v for extracts and compounds. All samples were tested in triplicate at each concentration and each assay was independently repeated at least 3 times. The concentrations used for the cytotoxicity assays were 50, 25, 12.5, 6.25. and 3.125 μg/mL.
(§2) To check for cytotoxicity of the extracts and compounds against RAW264.7 mouse macrophage and 3T3 ccl-92 mouse fibroblast cell lines, the crystal violet cytotoxicity test was used according to the published protocol. In brief, RAW264.7 cells were seeded with a density of 2 × 10^4 cells/well in a 96-well plate and then incubated for 18–24 h. The following day the compounds/extracts were added and then incubated for 24 h before the media was aspirated and the cells washed twice in a gentle stream of water. After removing the water, 50 µL of 0.5% crystal violet staining solution were added and the cells were incubated for 20 min at room temperature. The plate was then washed 4 times with water and air dried for 2 h. Finally, 200 μL of methanol was added to each well and incubated for 20 min at room temperature on a rocker. This was followed by measuring the optical density at 570 nm with a plate reader Anthos Zenyth 200rt (Anthos Labtec Instruments, Heerhugowaard, The Netherlands). Chlorambucil was used as a positive control.

[5] = tested on: TNFα production; assay: TNF-alpha inhibition assay (ELISA) in LPS-stimulated RAW264.7 macrophages; assay type: cell-based, mouse; details: for IC50: max test concentration 50 µg/mL, read-out: TNFα IC50
Protocol: The amount of TNFα was quantified in cell culture media using murine TNFα ELISA kits (BD bioscience). In brief, the RAW264.7 mouse macrophages (6 × 10^5 cells/mL) were stimulated with LPS (100 ng/mL) 1 h after treatment with several concentrations of extracts (0.08–50 μg/mL). After 18 h, the supernatant was collected and TNFα production was measured by reading the absorbance at 450 nm wavelength on an Anthos Zenyth 200rt microplate reader (Anthos Labtech Instruments). Dexamethasone at a concentration of 2.5 μM was used as a positive control, with a negative control of 0.35% DMSO.
(§3) All data were processed in Microsoft Office Excel 2013 (MS) first to obtain descriptive statistics. One-way Analysis of Variance (ANOVA) followed by Dunnett’s multiple comparisons test was performed using GraphPad Prism version 6.00 for Windows (GraphPad Software, La Jolla, CA, USA, www.graphpad.com), with p < 0.05 considered significant. The inhibitory concentration responsible for a 50% reduction in cell viability or production of inflammatory markers (IC50) was calculated using the regression analysis, Probit in SPSS v21.

[6] = Crystal violet cytotoxicity assay, RAW264.7; details: mouse
Protocol: as §1, §2

[7] = tested on: RAW264.7 mouse macrophage; assay: Crystal violet cytotoxicity assay, RAW264.7; details: 24 h incubation; max test concentration 50 µg/mL; > = <50% reduction in viability at max, ~ = close to 50%
Protocol: as §1, §2

[8] = tested on: PGE2 production; assay: PGE2 inhibition assay (ELISA) in calcium ionophore-stimulated 3T3 ccl-92 fibroblasts; assay type: cell-based, mouse; details: for IC50: calcium ionophore-stimulated 3T3 ccl-92, max test concentration 50 µg/mL
Protocol: The levels of PGE2 were measured in cell media using a Cayman Prostaglandin E2 Express ELISA Kit (Cayman Chemical, Ann Arbor, MI, USA) according to the manufacturer’s instructions. In brief, the 3T3 ccl-92 fibroblasts (1 × 10^5 cells/mL) were grown overnight in a 96-well plate and then treated with extracts/compounds 3 h before being stimulated with Calcium ionophore (50 μM). After 20 min, supernatants were collected and PGE2 production was quantified by measuring the absorbance at 405 nm wavelength with an Anthos Zenyth 200rt (Anthos Labtech Instruments). Indomethacin at a concentration of 100 μM was used as a positive control and ~0.5% DMSO as a negative control.
as §3

[9] = tested on: NFκB translocation; assay: Assessment of NFκB translocation in LPS-stimulated RAW264.7; assay type: cell-based; details: Mus musculus, RAW264.7, 40 µg/mL, LPS-stimulated RAW264.7, relative to DMSO + LPS
Protocol: This assay was performed according to the published protocol in Olivera et al.. RAW264.7 mouse macrophages were seeded at 400,000 cells/well in 800 μL in 4-well chambered slides and incubated overnight. The cells were then incubated with the test samples (40 μg/mL HBG extract, 6-bromoisatin, or 6-bromoindole) for 1 h prior to stimulation with LPS (700 ng/mL) for 30 min. After stimulation, the cells were washed with PBS and fixed with 3.7% paraformaldehyde for 15 min. […] The cells were washed with PBS and incubated with rabbit anti-p65 NFκB antibody (1:500) and goat anti-mouse IκB (1:500) overnight at 4 °C. The following day, the cells were washed again three times with PBS and incubated for 1 h with goat-anti-rabbit IgG conjugated with Alexa Fluor 594 (1:1000) and donkey anti-mouse IgG conjugated with Alexa fluor 488 (1:1000) at room temperature. Finally, the cells were washed with PBS then mounted with Prolong mounting media containing DAPI before visualising using the Olympus Flouview FVi10 confocal microscope (Olympus, Tokyo, Japan). Using ImageJ (v1.50i, National Institutes of Health, Bethesda, MD, USA), an outline was drawn around each nucleus by adjusting the colour threshold of DAPI. Mean fluorescence inside the nucleus was measured, along with several adjacent background readings. The total corrected cellular fluorescence (TCCF) was calculated by applying the equation TCCF = integrated density − (area of selected cell × mean fluorescence of background readings). This TCCF was then used to calculate the %inhibition of the NFκB translocation against the positive control where the cells were treated with LPS in the presence of the Vehicle (0.35% DMSO v/v) in Microsoft Office Excel 2013 (Redmond, WA, USA).

[10] = Crystal violet cytotoxicity assay, 3T3 ccl-92; assay type: cell-based, mouse; details: mouse, 3T3 ccl-92 fibroblast cells; 3T3, 50 µg/mL, 24 h incubation, compared to DMSO-treated wells
Protocol: as §1, §2

[11] = Mus musculus, RAW264.7, LPS-stimulated RAW264.7, max test concentration 50 µg/mL
[12] = Mus musculus, RAW264.7, LPS-stimulated RAW264.7

For O=C1Nc2cccc(Br)c2C1=O [4-bromoisatin], the “inhibition of NO production (in words)” value [1] is listed as “did not inhibit” and the “inhibition of PGE2 (in words)” value [2] is listed as “did not inhibit”.
With O=C1Nc2ccc(Br)cc2C1=O [5-bromoisatin] the IC50 ([3]; LPS-stimulated RAW264.7, max test concentration 50 µg/mL, listed as 5-bromoisatin (9)) was 152 µM, the IC50 [3, 11] was 152 µM and the IC50 [3, 12] was 34.3 mg/L. For the same molecule, the “Cytotoxicity 3T3 ccl-92 (test concentration which causes toxicity)” value [4] was “NA (not active at maximum test concentration 50 µg/mL)”, the IC50 ([5]; LPS-stimulated RAW264.7, listed as 5-bromoisatin (9)) was 38 µM and the IC50 [5, 12] was 38.1 µM. The inhibition at 50 µg/mL ([5]; Mus musculus, RAW264.7, 50 μg/mL) was 100%, the viability at 24 h, 50 µg/mL [6] was 55% and the “Cytotoxicity RAW264.7 (test concentration which causes toxicity)” value [7] was ~221.21 µM.
With O=C1C(=C2Nc3cc(Br)ccc3C2=O)Nc2cc(Br)ccc21 [6,6 dibromoindigo] the “NO inhibitory activity (in words)” value [3] was “minimal inhibitory activity”, the IC50 [3, 11] was > 50 mg/L and the “Cytotoxicity 3T3 ccl-92 (test concentration which causes toxicity)” value [4] was “NA (not active at maximum test concentration 50 µg/mL)”.
In the case of O=C1Nc2cc(Br)ccc2C1=C1Nc2ccccc2C1=O [6-bromoindirubin], the “NO inhibitory activity (in words)” value [3] is reported as “minimal inhibitory activity”, the IC50 [3, 11] is reported as > 50 mg/L and the viability at 24 h, 50 µg/mL [6] is reported as 56.2%.
With Brc1ccc2cc[nH]c2c1 [6-bromoindole] the IC50 [3, 11] was 187 µM, the “Cytotoxicity 3T3 ccl-92 (test concentration which causes toxicity)” value [4] was “NA (not active at maximum test concentration 50 µg/mL)” and the IC50 ([5]; LPS-stimulated RAW264.7, listed as 6-bromoindole (11)) was 150 µM. For the same molecule, the IC50 [5, 12] was 150 µM, the IC50 ([8]; Mus musculus, Fibroblast) was 223 µM and the IC50 ([8]; listed as 6-bromoindole (11)) was 223 µM. For the same molecule, the “lowest concentration with significant PGE2 inhibition” value ([8]; p < 0.05 vs solvent control) was 0.08 µg/mL, the viability at 24 h, 50 µg/mL [6] was 66.4% and the “Cytotoxicity RAW264.7 (test concentration which causes toxicity)” value [7] was >255.04 µM. For the same molecule, the inhibition at 40 µg/mL [9] was 60.7%.
For O=C1Nc2cc(Br)ccc2C1=O [6-bromoisatin], the IC50 [3, 11] was 120 µM, the IC50 [3, 12] was 27.1 mg/L and the “lowest concentration with significant inhibition of NO production” value [3] was 0.4 µg/mL. The “Cytotoxicity 3T3 ccl-92 (test concentration which causes toxicity)” value [4] was “NA (not active at maximum test concentration 50 µg/mL)”, the IC50 ([5]; LPS-stimulated RAW264.7, listed as 6-bromoisatin (4)) was 123 µM and the IC50 [5, 12] was 123 µM. For the same molecule, the IC50 ([8]; Mus musculus, Fibroblast) was > 221 µM, the inhibition at 0.08 µg/mL ([8]; Mus musculus, Fibroblast, 0.08 µg/mL) was 10% and the inhibition at 50 µg/mL ([8]; Mus musculus, Fibroblast, 50 μg/mL) was 40%. The inhibition at 40 µg/mL [9] was 63.7%.
In the case of O=C1Nc2c(Br)cccc2C1=O [7-bromoisatin], the “reduction of NO production” value [3] is reported as “less than 5%”, the IC50 [3, 11] is reported as > 50 mg/L and the viability at 24 h, 50 µg/mL [10] is reported as 80.9%. For the same molecule, the “Cytotoxicity 3T3 ccl-92 (test concentration which causes toxicity)” value [4] was >221.21 µM and the viability at 24 h, 50 µg/mL [6] was 81.9%.
In the case of O=C1Nc2ccc(I)cc2C1=O [Compound 5-iodoisatin, 5-iodoisatin], the “inhibition of NO production (in words)” value [1] is listed as “did not inhibit” and the “inhibition of PGE2 (in words)” value [2] is listed as “did not inhibit”.
With CSc1[nH]c2cc(Br)ccc2c1OS(=O)(=O)O [Tyrindoxyl sulfate, tyrindoxyl sulfate] the IC50 [3, 11] was > 50 mg/L and the “Cytotoxicity 3T3 ccl-92 (test concentration which causes toxicity)” value [4] was “NA (not active at maximum test concentration 50 µg/mL)”.
With C[C@@H]1C[C@H]2[C@@H]3CCC4=CC(=O)C=C[C@]4(C)[C@@]3(F)[C@@H](O)C[C@]2(C)[C@@]1(O)C(=O)CO [dexamethasone, reference compound] the inhibition at 2.5 µM ([3]; Mus musculus, RAW264.7, working concentration 2.5 µM, positive control) was 56%.
In the case of O=C1Nc2ccccc2/C1=C1/Nc2ccccc2C1=O [indirubin], the “NO inhibitory activity (in words)” value [3] is reported as “minimal inhibitory activity”, the IC50 [3, 11] is reported as > 50 mg/L and the “Cytotoxicity 3T3 ccl-92 (test concentration which causes toxicity)” value [4] is reported as “NA (not active at maximum test concentration 50 µg/mL)”.
For CSC1=Nc2cc(Br)ccc2C1=O [tyrindoleninone], the IC50 [3, 11] was 103 µM, the IC50 [3, 12] was 26.4 mg/L and the “lowest concentration with significant inhibition of NO production” value [3] was 0.08 µg/mL. For the same molecule, the “Cytotoxicity 3T3 ccl-92 (test concentration which causes toxicity)” value [4] was “NA (not active at maximum test concentration 50 µg/mL)”, the IC50 ([5]; LPS-stimulated RAW264.7, listed as Tyrindoleninone (3)) was 157 µM and the IC50 [5, 12] was 157 µM. It also gave a viability at 24 h, 50 µg/mL [6] of 84.1%.
In the case of CSC1(C2(SC)Nc3cc(Br)ccc3C2=O)Nc2cc(Br)ccc2C1=O (stereo not shown) [tyriverdin], the “reduction of NO production” value [3] is reported as “less than 50%”, the IC50 [3, 11] is reported as > 97.2 µM and the “lowest concentration with significant inhibition of NO production” value [3] is reported as 10 µg/mL. The “Cytotoxicity 3T3 ccl-92 (test concentration which causes toxicity)” value [4] was “NA (not active at maximum test concentration 50 µg/mL)”.
